Experimental findings from ChEMBL document CHEMBL1240419, “Synthesis and antibacterial activity of 3-O-carbamoyl derivatives of 6,11-di-O-methylerythromycin A: a novel class of acylides” (2010) are described below.

Values after ≈ are worked out from the molar mass of the structure shown.

Common to all, as to type: functional
The test system of assay [1] is Staphylococcus aureus. Put plainly: Antibacterial activity against erythromycin-susceptible Staphylococcus aureus ATCC 25923 by broth microdilution method.
Assay [2] deals with Staphylococcus aureus. Put plainly: Antibacterial activity against erythromycin-resistant, methicillin-susceptible Staphylococcus aureus A265 by broth microdilution method. In general terms: Dilution methods test growth across graded concentrations, often in twofold steps.
The test system of assay [3] is Staphylococcus aureus. Put plainly: Antibacterial activity against erythromycin, methicillin-resistant Staphylococcus aureus A333 by broth microdilution method.
Assay [4] deals with Streptococcus pneumoniae. Put plainly: Antibacterial activity against erythromycin-susceptible Streptococcus pneumoniae ATCC 49619 by broth microdilution method.
Assay [5] concerns Streptococcus pneumoniae. Put plainly: Antibacterial activity against erythromycin-resistant Streptococcus pneumoniae 3469 by broth microdilution method.
Assay [6] concerns Haemophilus influenzae. Put plainly: Antibacterial activity against ampicillin-susceptible Haemophilus influenzae ATCC 49247 by broth microdilution method.
Assay [7] relates to Haemophilus influenzae. Put plainly: Antibacterial activity against ampicillin-resistant Haemophilus influenzae 3300 by broth microdilution method.

Take `CC[C@H]1OC(=O)[C@H](C)[C@@H](O[C@H]2C[C@@](C)(OC)[C@@H](O)[C@H](C)O2)[C@H](C)[C@@H](O[C@@H]2O[C@H](C)C[C@H](N(C)C)[C@H]2O)[C@](C)(OC)C[C@@H](C)C(=O)[C@H](C)[C@@H](O)[C@]1(C)O` [CLARITHROMYCIN]: the MIC in assay [1] is 0.25 µg/mL (≈ 0.334 µM); in assay [2] it was 4 µg/mL (≈ 5.35 µM); in assay [3] it was over 64 µg/mL; in assay [4], 0.25 µg/mL (≈ 0.334 µM); in assay [5], 2 µg/mL (≈ 2.67 µM); in assay [6], 8 µg/mL (≈ 10.7 µM). Also, in assay [7], the MIC worked out at 8 µg/mL (≈ 10.7 µM).

For the molecule `CC[C@H]1OC(=O)[C@H](C)[C@@H](O[C@H]2C[C@@](C)(OC)[C@@H](O)[C@H](C)O2)[C@H](C)[C@@H](O[C@@H]2O[C@H](C)C[C@H](N(C)C)[C@H]2O)[C@](C)(O)C[C@@H](C)C(=O)[C@H](C)[C@@H](O)[C@]1(C)O` [ERYTHROMYCIN], the MIC in assay [1] was 0.125 µg/mL (≈ 0.17 µM); in assay [2], 2 µg/mL (≈ 2.73 µM); in assay [3] it was over 64 µg/mL; in assay [4], 0.25 µg/mL (≈ 0.341 µM); in assay [5], 1 µg/mL (≈ 1.36 µM); in assay [6], 16 µg/mL (≈ 21.8 µM). Besides, the MIC in assay [7] stood at 16 µg/mL (≈ 21.8 µM).
